Experimental data reported in patent US8937095B2, “Anticancer compounds” (Boehringer Ingelheim International GmbH, priority 2012, dated 2015).

Key:
[1] = tested on: A375 cells; experiment: Proliferation assay (CyQuant Direct), A375 cells; type: cell-based; settings: Homo sapiens, A-375; 72 hour incubation; read-out: GI50 antiproliferative effect on A375 cells
Procedure: (§1) Experimental Procedure of Proliferation Assay:
(§2) A375 and Calu6 cells are grown in RPMI1640, 10% FBS, in a humidified atmosphere of 5% CO2 at 37° C. Cells are seeded into flat bottom 96 well microtiter plates and incubated in a humidified atmosphere of 5% CO2 at 37° C. for 24 hours. Compounds are added, at the same time, a “time zero” untreated cell plate is stained and measured after 1 h. Compounds are serially diluted 5-fold from the highest test concentration (10 μM) and assayed over 8 concentrations in duplicates. The concentration of the solvent DMSO in the final culture is 0.1%. After a 72 hour incubation period, cells are stained with fluorescent nuclear dye to allow visualization of nuclei (CyQuant Direct Cell Proliferation Assay, Invitrogen Cat. No. C35012). Total fluorescence intensity of each well is measured using an Envision platform with excitation at 480 nm, emission detection at 535 nm. The assay signal correlates to the number of nuclei and thus, by definition, to the number of cells in the culture well (“cell count”).
(§3) The cell proliferation assay output for control cells after 72 hours of incubation, corresponding to 100% cell proliferation, is taken as the reference cell count for all subsequent calculations. Relative cell proliferation in compound-treated cultures (signal percent of control, “POC”) is calculated according to the following formula: POC(t=72 h)=100*fluorescence(compound wells)/fluorescence(control wells)
(§4) In addition, for each compound-treated culture, the cell count after incubation for 72 hours (POC(t=72h)) is related to the cell count at the start of treatment (POC(t=0 h)): POC(t=0 h)=100*fluorescence at t=0(control wells)/fluorescence at t=72 h(control wells)
(§5) The concentration-response curves were calculated using the dose-response package (drc versio 2.0-1 http://cran.rproject.org/web/packages/drc/index.html) from R (version 2.10.1 http://www.r-project.org/). […]
(§6) Relative cell growth inhibition (CGI %) in compound-treated cultures is calculated according to the following formula: […]

[2] = tested on: Calu6 cells; experiment: Proliferation assay (CyQuant Direct), Calu6 cells; type: cell-based; settings: Homo sapiens, Calu-6; 72 hour incubation; read-out: GI50 antiproliferative effect on Calu6 cells
Procedure: as §1, §2, §3, §4, §5, §6

| GI50 [1] | GI50 [2] | Compound |
| --- | --- | --- |
| 3.37 nM | 7.82 nM | CCNC(=O)C#Cc1ccc2c(c1)NC(=O)/C2=C(\Nc1ccc(CNC)cc1)c1ccccc1 [Compound 26, 3-[3-[[4-(methylaminomethyl)anilino]-phenylmethylidene]-2-oxo-1H-indol-6-yl]-N-ethylprop-2-ynamide] |
| 17.3 nM | 11.3 nM | CCNC(=O)C#Cc1ccc2c(c1)NC(=O)/C2=C(\Nc1ccc(C[N+](C)(C)[O-])cc1)c1ccccc1 [Compound 27, 3-[3-[[4-(dimethyloxidoaminomethyl)anilino]-phenylmethylidene]-2-oxo-1H-indol-6-yl]-N-ethylprop-2-ynamide] |

| Compound | GI50 [1] | GI50 [2] |
| --- | --- | --- |
| CCNC(=O)C#Cc1ccc2c(c1)NC(=O)/C2=C(\Nc1ccc(CN(C)C)cc1)c1ccccc1 [Compound 6, 3-[3-[[4-(dimethylaminomethyl)anilino]-phenylmethylidene]-2-oxo-1H-indol-6-yl]-N-ethylprop-2-ynamide] | 2.7 nM | 7.66 nM |
